# Reference: patent US11491122B2, “Use of a combination of Adelmidrol and hyaluronic acid in the treatment of pain caused by osteoarthritis and epithelial dysfunctions” (Epitech Group S.p.A., priority 2014, dated 2022)
# Key:
# HaCaT cells = test: Endogenous levels of AEA, 2-AG, PEA and OEA in HaCaT cells stimulated with Adelmidrol (LC-APCI-MS); format: cell-based, human; conditions: Adelmidrol 10 μM, 24 hours
# Description: Cultured human keratinocytes, HaCaT, were grown in DMEM (Dulbecco's Modified Eagle Medium) supplemented with glutamine (2 mM), penicillin (400 U/ml), streptomycin ([…]), 10% FBS (Fetal Bovine Serum), in the presence of 5% CO2 and at 37° C. Thereafter, cells plated in 6-well multi-wells (9×10^5/well), once 70% confluence had been reached, were stimulated with Adelmidrol, 10 μM, or carrier (Ctrl, 0.05% methanol) for 24 hours in the presence of 5% CO2 at 37° C. After 24 hours, the cells and the surnatants were homogenized in 5 vol. of a chloroform/methanol TRIS-HCl 50 mM pH 7.4 (2:1:1) solution containing 10 pmol of [^2H]8anandamide (AEA) and 50 pmol of [^2H]52-arachidonoylglycerol (2-AG), [^2H]4palmitoylethanolamide (PEA) and [^2H]2oleoylethanolamide (OEA) (Bisogno et al., 1997). The organic-lipidic phase obtained from the four extractions with chloroform was subjected to purification by silica column chromatography, eluted by increasing concentrations of methanol in chloroform. The chloroform/methanol 90:10 fraction containing AEA, 2-AG, PEA and OEA was analyzed by liquid chromatography coupled to mass spectrometry using chemical ionization at atmospheric pressure (LC-APCI-MS) (Marsicano et al., 2002). The equipment used includes a Shimadzu HPLC (LC-10ADVP) coupled with a Shimadzu spectrometer (LCMS-2010) via a Shimadzu APCI interface. The ionization source temperature is 400° C. and a Phenomenex reverse phase HPLC column (C-18, 5 microns, 150×4.6 mm) is used. The mobile phase, consisting of a mixture of methanol/water/acetic acid (85/15/0.1%), passes through the column at a rate of 1 ml/min. The mass spectrum determination is carried out according to the selected ion monitoring (SIM) [Di Marzo et al. Nature 2001; 410:822-825]. Selected ions correspond to mass/charge values (m/z) of 356 and 348 (molecular ions of deuterated and non-deuterated AEA), 384.35 and 379.35 (molecular ions of deuterated and non-deuterated 2-AG), 304 and 300 (molecular ions of deuterated and non-deuterated PEA), 328 and 326 (molecular ions of deuterated and non-deuterated OEA). The quantity expressed as pmol/mg of lipid extract were compared using ANOVA followed by the Student-Newman-Keuls test.
# FAAH = molecular target: T1, FAAH (Rattus norvegicus, UniProt P97612); test: Maximum reduction of the activity of the PEA-degrading enzyme FAAH, rat brain membrane homogenates; format: biochemical
# T1 construct: was also measured using homogenates rat brain membranes; from tissue; host or cells: rat brain membrane homogenates
# T1 sequence (P97612 1-579): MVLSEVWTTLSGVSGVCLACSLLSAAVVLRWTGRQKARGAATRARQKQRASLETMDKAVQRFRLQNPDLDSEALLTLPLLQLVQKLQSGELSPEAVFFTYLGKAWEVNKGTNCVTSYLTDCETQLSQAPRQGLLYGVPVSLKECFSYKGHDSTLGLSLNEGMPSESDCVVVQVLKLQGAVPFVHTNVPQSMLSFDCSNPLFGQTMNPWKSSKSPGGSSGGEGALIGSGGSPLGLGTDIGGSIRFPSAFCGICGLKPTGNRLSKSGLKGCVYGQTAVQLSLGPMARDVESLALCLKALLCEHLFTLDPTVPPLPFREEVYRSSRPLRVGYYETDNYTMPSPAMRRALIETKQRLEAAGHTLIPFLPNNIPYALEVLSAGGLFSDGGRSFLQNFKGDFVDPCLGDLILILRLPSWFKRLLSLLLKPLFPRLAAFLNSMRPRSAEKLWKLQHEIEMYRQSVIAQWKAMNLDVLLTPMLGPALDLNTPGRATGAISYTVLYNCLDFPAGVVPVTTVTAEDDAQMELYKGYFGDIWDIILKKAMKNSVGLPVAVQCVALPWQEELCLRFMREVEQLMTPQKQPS
# Description: (§1) The maximum reduction of the activity of the palmitoylethanolamide-degrading enzymes (NAAA and FAAH) was also measured using homogenates rat brain membranes [Ueda N et al Chem Phys Lipids. 2000 November; 108(1-2):107-21; Tsuboi K. Et al J Biol Chem. 2005 March 25; 280(12):11082-92].
# NAAA = molecular target: T2, NAAA (Rattus norvegicus, UniProt Q5KTC7); test: Maximum reduction of the activity of the PEA-degrading enzyme NAAA, rat brain membrane homogenates; format: biochemical
# T2 construct: was also measured using homogenates rat brain membranes; from tissue; host or cells: rat brain membrane homogenates
# T2 sequence (Q5KTC7 131-362 limits assumed): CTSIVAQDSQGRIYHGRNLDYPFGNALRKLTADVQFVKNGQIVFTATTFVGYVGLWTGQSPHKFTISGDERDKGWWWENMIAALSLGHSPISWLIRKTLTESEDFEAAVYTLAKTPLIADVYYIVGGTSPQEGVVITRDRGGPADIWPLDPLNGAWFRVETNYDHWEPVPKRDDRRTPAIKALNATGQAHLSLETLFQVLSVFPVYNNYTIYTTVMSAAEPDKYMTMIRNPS
# T2 sequence (Q5KTC7 34-130 limits assumed): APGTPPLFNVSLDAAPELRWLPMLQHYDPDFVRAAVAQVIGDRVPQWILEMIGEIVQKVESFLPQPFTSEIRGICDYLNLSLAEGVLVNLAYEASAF
# Description: as §1
# [1] = cited from earlier work
# [2] = system: patients with Bladder Pain Syndrome (BPS); test: Intravesical instillation in patients with Painful Bladder Syndrome (BPS); format: in vivo, human; conditions: 7 female BPS patients
# Description: A sterile solution containing 2% Adelmidrol and 0.1% hyaluronic acid sodium salt was instilled into the bladder of no. 7 female patients through catheter after the complete emptying of the bladder itself. […] Most of the times, the patients had comorbidity with other pelvic diseases (vulvar vestibulitis 4/7; IBS (irritable bowel syndrome) 2/7; Fibromyalgia Syndrome 1/7, Recurrent Urinary Tract Infections (RUTI) 3/7).
# Treatments were carried out as attack therapy (one intravesical instillation per week for 8 weeks), followed by maintenance therapy (one instillation per month for 6 months).
# Using a dedicated diary, the frequency of urination (measured as the number of urinations in 12 hours), both during the day and at night, and the discomfort with bladder full were controlled, analyzing the pain, the feeling of weight and the burning in the pelvic area (all three parameters were measured by means of numerical scale VAS, before treatment, at the end of the attack therapy and at the end of the maintenance therapy).
# [3] = experimental animals, oral administration; cited from earlier work
# TNF-α = test: Osteoarthritis induced by sodium monoiodoacetate: TNF-α in the synovial fluid (ELISA); format: in vivo, rat; conditions: intra-articular Adelmidrol, MIA osteoarthritic rats
# Description: (§2) The experiments were conducted using adult male rats of the Wistar strain (weight 200-250 grams) supplied by Harlan Italy, put in enclosures for a week in standard dietary and environmental conditions (temperature 21±1° C., humidity 60±10%, light 12 hours a day and water and food ad libitum) before being used in the experiments. […] MIA acts locally by inhibiting glycolysis, destroying the metabolism of chondrocytes and producing cartilage degeneration. At the time of the induction of osteoarthritis, MIA was dissolved in sterile saline. Before carrying out the intra-articular administration, the rats were anesthetized with pentobarbital sodium dissolved in saline at the dose of 60 mg/kg, in an administration volume of 0.2 ml/hg intraperitoneally (i.p.). The animals that received the MIA injection in their right knee represent the osteoarthritic (OA) group. […]
# The determination of TNF-α levels in the synovial fluid was made using an ELISA (Enzyme Linked Immuno-Sorbent-Assay) immunoenzymatic assay using a commercial kit from Biosource International Inc. The method uses a procedure in which the antigen is trapped between two layers of antibodies and for this reason it is called an ELISA sandwich. […] Following the enzymatic reaction, a product is generated whose staining intensity is measured spectrophotometrically and is directly proportional to the concentration of TNF-α in the samples. […]
# [4] = system: knee osteoarthritis induced by monosodium iodoacetate (MIA); test: Osteoarthritis induced by sodium monoiodoacetate: knee edema by digital caliper; format: in vivo, rat; conditions: intra-articular Adelmidrol 1.5, 15 and 150 μg/injection, days 1, 8, 15; dose-dependent, evident at all analyzed times
# Description: as §2, with “(i.p.).” for “(i.p.). The animals that received the MIA injection in their right knee represent the osteoarthritic (OA) group.”
# In order to evaluate the formation of the edema in the right knee of the animals after MIA injection, a digital manual slide caliper (measuring capacity 0-150 mm; resolution: 0.01 mm; ROHS Compliant Electronic Digital Caliper—2 Biological Instruments SNC, Italy) was used. […] The edema was calculated as the difference between the […] of the right knee and left knee. […]
# The various parameters are measured at different times in relation to the parameter itself (e.g. inflammatory parameters are evaluated only in the first week since the MIA, pain is always evaluated before and 60 min. after the administration of Adelmidrol).
compound,measurement,setting,value
"O=C(CCCCCCCC(=O)NCCO)NCCO [Adelmidrol, N,N′-Bis(2-hydroxyethyl)nonandiamide]",levels of 2-AG in HaCaT cells,HaCaT cells; vs Ctrl,No significant variation
same,levels of AEA in HaCaT cells,HaCaT cells; vs Ctrl,No significant variation
same,levels of OEA in HaCaT cells,HaCaT cells; vs Ctrl,No significant variation
same,levels of PEA in HaCaT cells,"HaCaT cells; basal values 31.6±5.6, n=6, P<0.0001",66.4±9.6 pmol/mg of lipid extract
same,inhibition of the activity of FAAH (in words),FAAH,does not inhibit
same,inhibition at 50 µM,"FAAH; Treatment with Adelmidrol 50 μM, Control 21.22 ± 3.18%, read-out: Maximum inhibition of the enzymatic activity (expressed as IC50), Enzyme FAAH",20.1 ± 4.12%
same,inhibition of the activity of NAAA (in words),NAAA,does not inhibit
same,inhibition at 50 µM,"NAAA; Treatment with Adelmidrol 50 μM, Control 11.43 ± 1.72%, read-out: Maximum inhibition of the enzymatic activity (expressed as IC50), Enzyme NAAA",11.3 ± 2.26%
same,solubility in lipids,[1],good solubility in lipids
same,solubility in water,[1],high solubility in water
same,"all the parameters evaluated (urination frequency, pain, weight, burning) after treatment",[2],marked improvement
same,LD50,[3],2-3 g/kg body weight
same,levels of TNF-α in the synovial fluid,TNF-α,reduction
same,anti-inflammatory effect (knee edema),[4],strong anti-inflammatory effect
